Source: PMC3466204 (PLoS ONE, 2012)
“And” between values parts separate entries of the source, which are not always exact repeats. Equal values may be shown once. Ends that are not written are not given here.

Columns and labels:
[1] = test system: L. lactis HP; assay: Broth MIC, Gram positive; assay type: cell-based; conditions: broth microtitre, BSA pre-treated plates, 10^5 cfu ml^−1, 2-fold dilutions from 500 nM, 16 h, purified peptide, mean of triplicate assays
Description: (§1) Minimum inhibitory concentration determinations for Gram positive organisms were carried out in triplicate in microtitre plates (Sarstedt). 96 well microtitre plates were pre-treated with bovine serum albumin (BSA) prior to addition of the peptides. Briefly, to each well of the microtitre plate 200 µL of phosphate buffered saline (PBS) containing 1% (w/v) bovine serum albumin (PBS/BSA) was added and incubated at 37°C for 30 min. The wells were washed with 200 µL PBS and allowed to dry. Target strains were grown overnight in the appropriate conditions and medium, subcultured into fresh broth and allowed to grow to an OD600 of ∼0.5, diluted to a final concentration of 10^5 cfu ml^−1 in a volume of 0.2 ml. Wild type nisin and nisin mutant peptides were adjusted to a 10 µM (S. mitis, B. cereus), 7.5 µM (L. monocytogenes), 5 µM (hVISA) 2.5 µM (MRSA, E. durans), or 500 nM (L. lactis strains) starting concentration and 2-fold serial dilutions of each peptide were added to the target strain.

[2] = test system: S. aureus RF122; assay: Broth MIC, Gram positive; assay type: cell-based; conditions: broth microtitre, BSA pre-treated plates, 10^5 cfu ml^−1, 2-fold dilutions, 16 h 37°C, purified peptide, mean of triplicate assays
Description: as §1

[3] = test system: S. mitis UCC5000; assay: Broth MIC, Gram positive; assay type: cell-based, Streptococcus mitis; conditions: broth microtitre, BSA pre-treated plates, 10^5 cfu ml^−1, 2-fold dilutions from 10 µM, 16 h 37°C, purified peptide, mean of triplicate assays
Description: as §1

[4] = test system: B. cereus DPC 6088; assay: Broth MIC, Gram positive; assay type: cell-based, Bacillus cereus; conditions: broth microtitre, BSA pre-treated plates, 10^5 cfu ml^−1, 2-fold dilutions from 10 µM, 16 h 37°C, purified peptide, mean of triplicate assays
Description: as §1

[5] = test system: B. cereus DPC 6089; assay: Broth MIC, Gram positive; assay type: cell-based, Bacillus cereus; conditions: broth microtitre, BSA pre-treated plates, 10^5 cfu ml^−1, 2-fold dilutions from 10 µM, 16 h 37°C, purified peptide, mean of triplicate assays
Description: as §1

[6] = test system: E. durans 5133; assay: Broth MIC, Gram positive; assay type: cell-based, Enterococcus durans; conditions: broth microtitre, BSA pre-treated plates, 10^5 cfu ml^−1, 2-fold dilutions from 2.5 µM, 16 h 37°C, purified peptide, mean of triplicate assays
Description: as §1

[7] = test system: C. sakazakii DPC 6440; assay: Agarose gel diffusion assay, purified peptide; assay type: cell-based, Cronobacter sakazakii; conditions: purified peptide 60 µM; for Zone of inhibition, agarose gel diffusion: C. sakazakii DPC 6440, mean of triplicate assays; for Zone as % wt: C. sakazakii DPC 6440, relative to nisin A
Description: (§2) Agarose-based deferred antagonism assays were carried out as follows: GM17/LB (0.03%) underlay was prepared with 10 mM sodium phosphate buffer (SPB) at pH 7.4 to which was added agarose (1% w/v agarose), autoclaved and cooled to 50°C. Bacteria grown to mid-logarithmic phase were harvested by centrifugation and washed with 10 mM SPB at pH 7.4. Bacteria were then added to 15 mls cooled underlay medium to reach a concentration of 2×10^7 colony-forming units (CFU)/mL. The inoculated medium was rapidly transferred into sterile Petri plates, allowed to solidify and dried. Wells (4.6 mm in diameter) were then made in the seeded plates. 10 µl volumes of cell-free supernatant from overnight nisin derivative producing cultures or resuspended purified peptides were then added to the wells and the plates incubated at 30°C (L. lactis) or 37°C (Gram positive strains) or RT (Gram negative strains) for 3 hours. Polymyxin B (Sigma Aldrich) was used at a concentration of 20 µg/ml. The plates were then overlaid with 15 mls of autoclaved double strength GM17 (L. lactis) or LB (Gram negatives) agarose (1% w/v agarose) overlay medium precooled to 50°C. The plates were then incubated overnight at the relevant temperature.

[8] = test system: E. coli 0157-H7; assay: Agarose gel diffusion assay, purified peptide; assay type: cell-based; conditions: purified peptide 60 µM; for Zone of inhibition, agarose gel diffusion: E. coli 0157-H7, mean of triplicate assays; for Zone as % wt: E. coli 0157-H7, relative to nisin A
Description: as §2

[9] = test system: Salmonella enterica serovar Typhimurium UK1; assay: Agarose gel diffusion assay, purified peptide; assay type: cell-based; conditions: purified peptide 60 µM; for Zone of inhibition, agarose gel diffusion: Salmonella Typhimurium UK1, mean of triplicate assays; for Zone as % wt: Salmonella Typhimurium UK1, relative to nisin A
Description: as §2

[10] = test system: C. sakazakii DPC 6440; assay: Broth MIC, Gram negative; assay type: cell-based, Cronobacter sakazakii; conditions: cells washed in 10 mM SPB pH 7.4, 2×10^5 CFU/mL, 2 h RT with peptide, then double strength LB, RT overnight, mean of triplicate assays
Description: (§3) Minimum inhibitory concentration determinations for Gram negative strains were carried out in triplicate in 96 well microtitre plates. Briefly, bacteria (E. coli, C. sakazakii and Salmonella) grown to mid-logarithmic phase were harvested by centrifugation, washed with 10 mM SPB at pH 7.4, and diluted to 2×10^5 colony-forming units (CFU)/mL in SPB. Nisin and nisin derivative peptides were resuspended in sterile HPLC water and 50 µL aliquots were added to wells containing 50 µL of 2×10^5 CFU of bacteria. Plates were incubated at RT for two hours with agitation. Double strength Luria–Bertani (LB) broth (100 µL) was added and the plates were incubated at RT overnight, the MIC was taken as the lowest concentration at which growth was inhibited.

[11] = test system: E. coli 0157-H7; assay: Broth MIC, Gram negative; assay type: cell-based; conditions: cells washed in 10 mM SPB pH 7.4, 2×10^5 CFU/mL, 2 h RT with peptide, then double strength LB, RT overnight, mean of triplicate assays
Description: as §3

[12] = test system: Salmonella enterica serovar Typhimurium UK1; assay: Broth MIC, Gram negative; assay type: cell-based; conditions: cells washed in 10 mM SPB pH 7.4, 2×10^5 CFU/mL, 2 h RT with peptide, then double strength LB, RT overnight, mean of triplicate assays
Description: as §3

[13] = test system: Lactococcus lactis HP; assay: Agarose-based assay of cell-free supernatants of S29X producing strains; conditions: for Zone Diameter (mm): agarose (1%) GM17 assay, 10 µl cell-free supernatant of overnight producing culture in 4.6 mm wells, L. lactis HP, 30°C; for % difference (zone relative to wild type): agarose assay of supernatants against L. lactis HP, wild type serine = 100
Description: as §2

[14] = test system: L. lactis MG1363; assay: Broth MIC, Gram positive; assay type: cell-based; conditions: broth microtitre, BSA pre-treated plates, 10^5 cfu ml^−1, 2-fold dilutions from 500 nM, 16 h, purified peptide, mean of triplicate assays
Description: as §1

[15] = test system: L. monocytogenes 10403S; assay: Broth MIC, Gram positive; assay type: cell-based; conditions: broth microtitre, BSA pre-treated plates, 10^5 cfu ml^−1, 2-fold dilutions from 7.5 µM, 16 h 37°C, purified peptide, mean of triplicate assays
Description: as §1

[16] = test system: L. monocytogenes LO28; assay: Broth MIC, Gram positive; assay type: cell-based; conditions: broth microtitre, BSA pre-treated plates, 10^5 cfu ml^−1, 2-fold dilutions from 7.5 µM, 16 h 37°C, purified peptide, mean of triplicate assays
Description: as §1

[17] = test system: ST 528 (Methicillin resistant S. aureus); assay: Broth MIC, Gram positive; assay type: cell-based; conditions: broth microtitre, BSA pre-treated plates, 10^5 cfu ml^−1, 2-fold dilutions from 2.5 µM, 16 h 37°C, purified peptide, mean of triplicate assays
Description: as §1

[18] = test system: ST 530 (Methicillin resistant S. aureus); assay: Broth MIC, Gram positive; assay type: cell-based; conditions: broth microtitre, BSA pre-treated plates, 10^5 cfu ml^−1, 2-fold dilutions from 2.5 µM, 16 h 37°C, purified peptide, mean of triplicate assays
Description: as §1

[19] = test system: hVISA 32679 (heterogenous Vancomycin-intermediate S. aureus); assay: Broth MIC, Gram positive; assay type: cell-based; conditions: broth microtitre, BSA pre-treated plates, 10^5 cfu ml^−1, 2-fold dilutions from 5 µM, 16 h 37°C, purified peptide, mean of triplicate assays
Description: as §1

M21K: M21K hinge derivative of nisin A, generated and purified for comparison (ITSISLCTPGCKTGALMGCNKKTATCHCSIHVSK; thioether (positions not given here); not fully specified (residues 2, 5, 33, bridges); UniProt P13068 24-57, looked up, variant M21K)
MIC [1]: 0.2 mg/L and 0.062 µM
MIC [2]: 1.04 mg/L and 0.312 µM
MIC [3]: 8.38 mg/L and 2.5 µM
MIC [4]: 16.76 mg/L and 5.0 µM
MIC [5]: 16.76 mg/L and 5.0 µM
MIC [6]: 0.52 mg/L and 0.156 µM
Zone of inhibition, agarose gel diffusion [7]: 10.51±0.10 mm
Zone as % wt [7]: 108 % wt
Zone of inhibition, agarose gel diffusion [8]: 10.80±0.01 mm
Zone as % wt [8]: 110 % wt
Zone of inhibition, agarose gel diffusion [9]: 10.75±0.12 mm
Zone as % wt [9]: 109 % wt
MIC [10]: 6.28 mg/L and 1.875 µM
MIC [11]: 25.14 mg/L and 7.5 µM
MIC [12]: 50.28 mg/L and 15 µM

S29D: bioengineered nisin A derivative, serine 29 replaced by aspartic acid (ITSISLCTPGCKTGALMGCNMKTATCHCDIHVSK; thioether (positions not given here); not fully specified (residues 2, 5, 33, bridges); UniProt P13068 24-57, looked up, variant S29D)
Zone Diameter (mm) [13]: 20.3±0.8 mm
% difference (zone relative to wild type) [13]: 133 (0.006) %
MIC [1]: 0.05 mg/L and 0.015 µM
MIC [14]: 0.4 mg/L and 0.125 µM
MIC [15]: 12.57 mg/L and 3.75 µM
MIC [16]: 12.57 mg/L and 3.75 µM
MIC [2]: 4.19 mg/L and 1.25 µM
MIC [17]: 0.26 mg/L and 0.078 µM
MIC [18]: 0.52 mg/L and 0.156 µM
MIC [19]: 4.19 mg/L and 1.25 µM
MIC [3]: 16.76 mg/L and 5.0 µM
MIC [4]: 16.76 mg/L and 5.0 µM
MIC [5]: 8.38 mg/L and 2.5 µM
MIC [6]: 0.52 mg/L and 0.156 µM
Zone of inhibition, agarose gel diffusion [7]: 10.10±0.19 mm
Zone as % wt [7]: 103 % wt
Zone of inhibition, agarose gel diffusion [8]: 8.27±0.08 mm
Zone as % wt [8]: 84 % wt
Zone of inhibition, agarose gel diffusion [9]: 8.22±0.16 mm
Zone as % wt [9]: 83 % wt
MIC [10]: 6.28 mg/L and 1.875 µM
MIC [11]: > 100 mg/L and > 30 µM
MIC [12]: > 100 mg/L and > 30 µM

S29E: bioengineered nisin A derivative, serine 29 replaced by glutamic acid (ITSISLCTPGCKTGALMGCNMKTATCHCEIHVSK; not fully specified (residues 2, 5, 33, bridges); cysteine pairing not given here; UniProt P13068 24-57, looked up, variant S29E)
Zone Diameter (mm) [13]: 18.6±0.3 mm
% difference (zone relative to wild type) [13]: 122 (0.0004) %
MIC [1]: 0.05 mg/L and 0.015 µM
MIC [14]: 0.8 mg/L and 0.250 µM
MIC [15]: 12.57 mg/L and 3.75 µM
MIC [16]: 6.28 mg/L and 1.875 µM
MIC [2]: 2 mg/L and 0.625 µM
MIC [17]: 0.52 mg/L
MIC [18]: 0.52 mg/L
MIC [19]: 4.19 mg/L and 1.25 µM
MIC [3]: 4.19 mg/L
MIC [4]: 4.19 mg/L and 1.25 µM
MIC [5]: 4.19 mg/L and 1.25 µM
MIC [6]: 0.52 mg/L and 0.156 µM
Zone of inhibition, agarose gel diffusion [7]: 7.98±0.29 mm
Zone as % wt [7]: 81 % wt
Zone of inhibition, agarose gel diffusion [8]: 10.54±0.19 mm
Zone as % wt [8]: 107 % wt
Zone of inhibition, agarose gel diffusion [9]: 10.77±0.07 mm
Zone as % wt [9]: 109 % wt
MIC [10]: 12.57 mg/L and 3.75 µM
MIC [11]: 25.14 mg/L and 7.5 µM
MIC [12]: 50.28 mg/L and 15 µM
